Measured values reported in US8252737B2, “Antimicrobial peptides and methods of use” (priority 2004, dated 2012).
Converted amounts (≈) assume the structure as drawn. Where two headings read alike, the source gives them in different places. Square brackets hold non-standard residues; d marks the D form. Peptide text beside a SMILES is read from it.

What was measured:
[1] = tested on: Staphylococcus aureus
[2] = tested on: human erythrocytes; test: Hemolytic activity (MHC), Protocol B, 18 hours; details: for MHC (μg/ml) hRBC: maximal peptide concentration with no hemolysis after 18 hours
Outline: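 Hemolysis of 1% human erythrocytes in phosphate-buffered saline by 2-fold diluted D-peptides, incubated 18 h at 37 °C; hemoglobin release read spectrophotometrically. Value is the maximal peptide concentration producing no hemolysis, relative to erythrocytes without peptide.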

[3] = RP-HPLC temperature profiling (hydrophobicity and self-association/dimerization parameter PA); format: physicochemical; details: for tR (min) 5° C.: RP-HPLC retention time at 5° C. during temperature profiling (measure of hydrophobicity); for tR (min) 80° C.: RP-HPLC retention time at 80° C. during temperature profiling; for Hydrophobicity tR5: RP-HPLC retention time at pH 2, 5° C.; for Hydrophobicity tR80: RP-HPLC retention time at pH 2, 80° C.; for tR (min) Max: maximal RP-HPLC retention time during temperature profiling 5-80° C.; for PA (min) association parameter: maximal retention time difference relative to control peptide C within 5-80° C.; for PA (dimerization / self-association parameter): maximal retention time difference relative to control peptide C, 5-80° C.; for ΔtR (X-NVL) (min) 5° C. / ΔtR (X-NVL) (min) 80° C. / decrease in hydrophobicity relative to NVL (V681): non-polar face substitutions; for ΔtR (X-NVL) (min) 5° C.: retention time difference relative to native peptide V681 (NVL) at 5° C.; for ΔtR (X-NVL) (min) 80° C.: retention time difference relative to native peptide V681 (NVL) at 80° C.; for decrease in hydrophobicity relative to NVL (V681): RP-HPLC retention time difference at 80° C.
Outline: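 RP-HPLC retention times recorded over temperature profiling from 5°C to 80°C, with retention relative to native V681 at each limit used as hydrophobicity. Self-association parameter PA defined as the maximal change in retention time from 5°C, after subtracting that of monomeric random-coil control peptide C.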

[4] = tested on: S. typhimurium C610 abs
Procedure: (§1) The geometric mean MIC values from 6 microbial strains in this table were calculated to provide an overall evaluation of antimicrobial activity against gram-negative bacteria.
(§2) Measurement of Antimicrobial Activity—Minimal inhibitory concentrations (MICs) were determined using a standard microtiter dilution method in LB (Luria-Bertani) no-salt medium (10 g of tryptone and 5 g of yeast extract per liter). Briefly, cells were grown overnight at 37° C. in LB and diluted in the same medium. […] Plates were incubated at 37° C. for 24 hours and MICs determined as the lowest peptide concentration that inhibited growth. Alternatively, minimal inhibitory concentrations were determined using a standard microtiter dilution method in a Mueller-Hinton (MH) medium. Briefly, cells were grown overnight at 37° C. in MH broth and diluted in the same medium. […] Plates were incubated at 37° C. for 24 hours and MICs determined as the lowest peptide concentration that inhibited growth. However, for MIC determination of Pseudomonas aeruginosa clinical isolates, brain heart infusion (BH1) medium was used instead of MH broth. In addition, the bacteria were diluted to a final inoculum of 1×10^6 colony-forming units/ml.

[5] = tested on: E. coli (UB 1005 wt and DC2 abs); details: for MIC (μg/ml) E. coli C500 abs: antibiotic sensitive strain; for MIC (μg/ml) E. coli C498 wt: wild-type lab strain
Procedure: as §1, §2

[6] = Procedure: as §1, §2
[7] = tested on: P. aeruginosa H187 wt
Procedure: as §1, §2

[8] = tested on: Staphylococcus epidermidis
[9] = tested on: Bacillus subtilis
[10] = maximal peptide concentration producing no hemolysis after 18 hours, 37° C.

Molecule | Hemolytic activity MHC [2, 10] [µg/mL] | MHC (μg/ml) hRBC ([2]; Table 11) [µg/mL] | MHC (μg/ml) hRBC ([2]; Table 12) [µg/mL] | tR (min) 5° C. [3] [min] | tR (min) 80° C. [3] [min] | Hydrophobicity tR5 [3] [min] | Hydrophobicity tR80 [3] [min] | tR (min) Max [3] [min] | PA (min) association parameter [3] [min] | PA (dimerization / self-association parameter) [3] | ΔtR (X-NVL) (min) 5° C. ([3]; relative hydrophobicity) [min] | ΔtR (X-NVL) (min) 80° C. ([3]; relative hydrophobicity) [min] | MIC (μg/ml) E. coli C500 abs [5] [µg/mL] | MIC (μg/ml) E. coli C498 wt [5] [µg/mL] | MIC (μg/ml) S. epidermidis C621 wt [8] [µg/mL] | MIC (μg/ml) B. subtilis C971 wt [9] [µg/mL] | decrease in hydrophobicity relative to NVL (V681) [3] [min] | also measured
CC[C@H](C)[C@H](NC(=O)[C@H](C)NC(=O)[C@H](CCCCN)NC(=O)[C@H](CC(C)C)NC(=O)[C@H](C)NC(=O)[C@@H](NC(=O)[C@H](Cc1c[nH]cn1)NC(=O)[C@H](CC(C)C)NC(=O)[C@@H](NC(=O)[C@@H](NC(=O)[C@H](CCCCN)NC(=O)[C@@H](C)NC(=O)[C@H](C)NC(=O)[C@H](CO)NC(=O)[C@H](CCCCN)NC(=O)[C@H](Cc1ccccc1)NC(=O)[C@@H](NC(=O)[C@H](CCCCN)NC(=O)[C@H](CC(C)C)NC(=O)[C@H](Cc1ccccc1)NC(=O)[C@H](CO)NC(=O)[C@H](CCCCN)NC(=O)[C@H](Cc1c[nH]c2ccccc12)NC(=O)[C@H](CCCCN)NC(C)=O)[C@@H](C)O)[C@@H](C)O)C(C)C)[C@@H](C)O)C(=O)N[C@@H](CO)C(=O)N[C@@H](CO)C(N)=O [NAD] | 31.3 | 31.3 | 31.3 | 40.49 | 38.00 | 81.2 | 73.2 | 41.01 | 2.19 | 4.1 | -7.61 | -7.83 | 1.6 (≈ 0.545 µM) | 3.1 (≈ 1.06 µM) | 1.6 (≈ 0.545 µM) | 3.1 (≈ 1.06 µM) |  | MIC (μg/ml) S. aureus 623 methR ([1]; methicillin-resistant clinical strain): 3.1 µg/mL (≈ 1.06 µM); MIC (μg/ml) S. aureus 622 wt ([1]; wild type strain): 1.6 µg/mL (≈ 0.545 µM); Hemolytic activity Fold [2]: 4; Hemolytic activity MHC ([2]; red cells of human, 18 h): 31.3 µg/mL; MIC (μg/ml) St C610 abs ([4]; C610 abs): 3.1 µg/mL (≈ 1.06 µM); MIC (μg/ml) St C587 wt ([6]; C610 abs): 12.5 µg/mL (≈ 4.26 µM); MIC (μg/ml) Pa H188 abs [7]: 1.6 µg/mL (≈ 0.545 µM); MIC (μg/ml) Pa H187 wt ([7]; H187 wt): 3.1 µg/mL (≈ 1.06 µM)
CC[C@H](C)[C@H](NC(=O)[C@H](C)NC(=O)[C@H](CCCCN)NC(=O)[C@H](CC(C)C)NC(=O)[C@H](C)NC(=O)[C@@H](NC(=O)[C@H](Cc1cnc[nH]1)NC(=O)[C@H](CC(C)C)NC(=O)[C@@H](NC(=O)[C@@H](NC(=O)[C@H](CCCCN)NC(=O)[C@H](CCCCN)NC(=O)[C@H](C)NC(=O)[C@H](CO)NC(=O)[C@H](CCCCN)NC(=O)[C@H](Cc1ccccc1)NC(=O)[C@@H](NC(=O)[C@H](CCCCN)NC(=O)[C@H](CC(C)C)NC(=O)[C@H](Cc1ccccc1)NC(=O)[C@H](CO)NC(=O)[C@H](CCCCN)NC(=O)[C@H](Cc1c[nH]c2ccccc12)NC(=O)[C@H](CCCCN)NC(C)=O)[C@@H](C)O)[C@@H](C)O)C(C)C)[C@@H](C)O)C(=O)N[C@@H](CO)C(=O)N[C@@H](CO)C(N)=O [NKL] | 250.0 | 250.0 | 250.0 | 36.85 | 33.22 | 74.9 | 64.7 | 36.91 | 1.10 | 2.1 | -11.25 | -12.61 | 3.1 (≈ 1.04 µM) | 3.1 (≈ 1.04 µM) | 6.3 (≈ 2.11 µM) | 3.1 (≈ 1.04 µM) | -12.61 | MIC (μg/ml) S. aureus 622 wt [1]: 12.5 µg/mL (≈ 4.18 µM); MIC (μg/ml) S. aureus 623 methR [1]: 12.5 µg/mL (≈ 4.18 µM); Hemolytic activity Fold ([2]; fold decrease in hemolytic activity compared to V681, 18 hours): 32; Hemolytic activity MHC ([2]; maximal peptide concentration showing no hemolysis after 18 hours, hRBC, Table 14): 250.0 µg/mL; MIC (μg/ml) St C610 abs ([4]; Salmonella typhimurium antibiotic sensitive strain): 3.1 µg/mL (≈ 1.04 µM); MIC (μg/ml) St C587 wt ([6]; Salmonella typhimurium wild-type lab strain): 6.3 µg/mL (≈ 2.11 µM); MIC (μg/ml) Pa H188 abs ([7]; Pseudomonas aeruginosa antibiotic sensitive strain): 3.1 µg/mL (≈ 1.04 µM); MIC (μg/ml) Pa H187 wt ([7]; Pseudomonas aeruginosa wild-type lab strain): 6.3 µg/mL (≈ 2.11 µM)
CC[C@H](C)[C@H](NC(=O)[C@H](C)NC(=O)[C@H](CCCCN)NC(=O)[C@H](CC(C)C)NC(=O)[C@H](C)NC(=O)[C@@H](NC(=O)[C@H](Cc1c[nH]cn1)NC(=O)[C@H](CC(C)C)NC(=O)[C@@H](NC(=O)[C@@H](NC(=O)[C@H](CCCCN)NC(=O)[C@@H](NC(=O)[C@H](C)NC(=O)[C@H](NC(=O)[C@H](CCCCN)NC(=O)[C@H](Cc1ccccc1)NC(=O)[C@@H](NC(=O)[C@H](CCCCN)NC(=O)[C@H](CC(C)C)NC(=O)[C@H](Cc1ccccc1)NC(=O)[C@H](CO)NC(=O)[C@H](CCCCN)NC(=O)[C@H](Cc1c[nH]c2ccccc12)NC(=O)[C@H](CCCCN)NC(C)=O)[C@@H](C)O)C(C)C)C(C)C)[C@@H](C)O)C(C)C)[C@@H](C)O)C(=O)N[C@@H](CO)C(=O)N[C@@H](CO)C(N)=O [PVD] (Ac-KWKSFLKTFK[dV]AVKTVLHTALKAISS-NH2) |  |  |  | 42.96 | 40.51 |  |  | 43.83 | 2.54 |  |  |  |  |  |  |  |  | ΔtR (X-PSL) (min) 5° C. ([3]; polar face substitutions, retention time difference relative to native peptide V681 (PSL) at 5° C., relative hydrophobicity): -5.14 min; ΔtR (X-PSL) (min) 80° C. ([3]; polar face substitutions, retention time difference relative to native peptide V681 (PSL) at 80° C., relative hydrophobicity): -5.32 min
Ac-KWKSFLKTFKSAGKTVLHTALKAISS-NH2 [NG] |  |  |  | 39.96 | 36.74 |  |  | 40.22 | 1.64 |  | -8.14 | -9.09 |  |  |  |  |  | 
Ac-KWKSFLKTFKSALKTVLHTALKAISS-NH2 [NLL] |  |  |  | 48.16 | 47.02 |  |  | 50.45 | 4.22 |  | 0.06 | 1.19 |  |  |  |  |  | 
Ac-KWKSFLKTFKSASKTVLHTALKAISS-NH2 [NSL] |  |  |  | 40.72 | 37.62 |  |  | 41.08 | 1.82 |  | -7.38 | -8.21 |  |  |  |  | -8.21 | 
